From patent US20080020041A1, “Enteric Coated Compositions that Release Active Ingredient(s) in Gastric Fluid and Intestinal Fluid” (priority 2004, published 2008)
Structures can show the parent of a compound that is named as a salt. Where two headings read alike, the source gives them in different places.

Columns and labels:
[1] = fitted from available plasma data (PDR), used in simulations
Excerpt: These parameters are volume of distribution divided by fraction of dose absorbed (V/F), absorption rate constant (ka), and elimination rate constant (kel).

[2] = commercial mixed pellets, cited from earlier work
[3] = cited from earlier work
[4] = 60 mg immediate-release riboflavin, fed subjects; cited from earlier work
[5] = Hydrochlorothiazide bio-study: urinary excretion, urine output and side effects after IR or GRD; format: in vivo, human; details: same dose, drug released in gastric fluid (GRD)
Protocol: Two formulations for hydrochlorthiazide (an immediate release formulation (IR) and a gastric retention device (GRD) containing sustained release formulations (SR)) were administered in the bio-study (bioavailability study). A commercial tablet containing 50 mg of HCTZ was used as an IR control, and spray-coated beads equivalent to 50 mg of HCTZ were formulated for slow drug release (SR) and included in the GRF. Bioavailability and pharmacodynamics of HCTZ from a GRD were compared to those from an IR.
Monitoring concentrations of hydrochlorthiazide in the urine of healthy adult volunteers allowed comparison of the relative bioavailability of hydrochlorthiazide from the GRD formulation and from a conventional tablet. […] An IR was given once and the GRD was repeated twice to test the reproducibility of the new dosage form. A 50-mg dose was chosen for the study because it was in the range of the recommended dose from the PDR (Physician's Desk References) and it produced concentrations high enough to make HPLC analysis efficient. Six subjects participated in the study, 4 healthy males and 2 healthy females. They were not allowed any food or drink containing caffeine, nor alcohol or other medications. Smokers and vegetarians were not included. […] The volume of urine collected was measured in order to calculate total amount of drug recovered.

[6] = Description: All data fittings were performed on data from immediate-release formulations using WinNonlin software, version 3.2 (Pharsight Corporation, Mountain View, Calif.).
[7] = disintegrating tablets from pellets coated with cellulose acetate phthalate; cited from earlier work
[8] = prolonged release wax matrix formulation; cited from earlier work
[9] = fitted to literature data of immediate-release formulation

Compound: C[C@H](N)Cc1ccccc1 [d-Amphetamine]
- ka [1]: 0.744 h⁻¹
- Observed Cmax ([2]; Fasted, 30 mg): 40.2 ng/mL
- Observed Cmax ([2]; Fed, 20 mg): 25.3 ng/mL

Compound: CC(=O)Oc1ccc(C(c2ccc(OC(C)=O)cc2)c2ccccn2)cc1 [bisacodyl]
- Liberation of bisacodyl in 0.1 M HCl ([3]; coating of mixture of Eudagrit L and Eudgrit NE): approximately 4 % w/w
- Liberation of bisacodyl in phosphate buffer within 45 min ([3]; pH 6.8, polymer 1): 100%
- Liberation of bisacodyl in phosphate buffer within 45 min ([3]; pH 6.8, polymer 2): 40%
- Liberation of bisacodyl in phosphate buffer ([3]; pH 7.2, polymer 2): 100%
- Bisacodyl liberated in acidic media after tableting ([3]; pellets coated with 25% w/w of one of the new polymers): 4-5 % w/w

Compound: Cc1cc2nc3c(=O)[nH]c(=O)nc-3n(C[C@H](O)[C@H](O)[C@H](O)CO)c2cc1C [riboflavin]
- Bioavailability [4]: 36.4%

Compound: NS(=O)(=O)c1cc2c(cc1Cl)NCNS2(=O)=O [Hydrochlorothiazide]
- Adverse reactions reported [5]: No adverse reactions were reported

Compound: Cc1cc2nc3c(=O)[nH]c(=O)nc-3n(C[C@H](O)[C@H](O)[C@H](O)COP(=O)(O)O)c2cc1C [Riboflavin-5-phosphate]
- absorption rate constant [6, 9]: 3.67
- kel [6, 9]: 0.32 h⁻¹

Compound: CNC(=C[N+](=O)[O-])NCCSCc1ccc(CN(C)C)o1 [Ranitidine hydrochloride]
- absorption rate constant ([6]; human, in vivo): 0.641
- kel ([6]; human, in vivo): 0.239 h⁻¹

Compound: Cc1cc(NS(=O)(=O)c2ccc(N)cc2)no1 [sulfametoxazole]
- Drug liberated within 2 hours in artificial gastric fluid [7]: more than 10%

Compound: CC1(C)S[C@@H]2[C@H](NC(=O)[C@H](N)c3ccc(O)cc3)C(=O)N2[C@H]1C(=O)O [amoxicillin]
- Amoxicillin released in 6 hours [8]: 19%
